Data: publication PMC8998802 (Pain, 2019)

Target: δ opioid receptor (DOR) (Homo sapiens, UniProt P41143)
Assay: competition radioligand binding vs 3H-diprenorphine, DOR-CHO membranes

Chain of δ opioid receptor (DOR) (P41143 whole entry): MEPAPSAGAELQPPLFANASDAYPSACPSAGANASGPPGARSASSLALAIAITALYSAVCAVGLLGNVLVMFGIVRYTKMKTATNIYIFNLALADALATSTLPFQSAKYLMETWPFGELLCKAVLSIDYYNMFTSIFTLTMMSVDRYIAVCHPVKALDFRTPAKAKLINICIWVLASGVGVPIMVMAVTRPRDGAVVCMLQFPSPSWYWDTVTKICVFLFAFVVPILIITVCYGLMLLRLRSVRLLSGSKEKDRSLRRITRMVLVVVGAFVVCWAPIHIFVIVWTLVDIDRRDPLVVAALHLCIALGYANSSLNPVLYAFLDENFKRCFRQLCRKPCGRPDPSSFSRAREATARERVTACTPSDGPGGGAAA

Cc1noc(C)c1CC(=O)NCc1nc(NCCCc2ccccc2)c2ccccc2n1 [IPPQ, 2-(3,5-dimethylisoxazol-4-yl)-N-((4-((3-phenylpropyl)amino)quinazolin-2-yl)methyl)acetamide] gave a Ki greater than 1000 nM.
